Results taken from ChEMBL document CHEMBL1139649, “Hetaryl imidazoles: a novel dual inhibitors of VEGF receptors I and II” (Bioorg Med Chem Lett, 2006).

biological target: Insulin-like growth factor 1 receptor (Homo sapiens) (UniProt P08069); experiment: […] against IGF1R at 10 uM by HTRF method

Activity	Structure (SMILES)
< 30%	Cn1cnc(NCc2ccc3[nH]ncc3c2)c1-c1nnc(Nc2ccc(Cl)cc2)o1
< 30%	Cn1cnc(NCc2ccncc2)c1-c1nnc(Nc2ccc(OC(F)(F)Cl)cc2)o1
< 30%	Cn1cnc(NCc2ccc(F)c(F)c2)c1-c1nnc(Nc2ccc(Cl)cc2)o1
< 30%	Cn1cnc(NCc2ccc3ccccc3n2)c1-c1nnc(Nc2ccc(Cl)cc2)o1
< 30%	COc1cccc(Nc2nnc(-c3c(NCc4ccncc4)ncn3C)o2)c1
< 30%	Cn1cnc(NCc2ccncc2)c1-c1nnc(NCc2ccc3c(c2)OCO3)o1

biological target: T1, Vascular endothelial growth factor receptor 2 (Homo sapiens, UniProt P35968); experiment: Inhibition of VEGFR2 by enzymatic assay

IC50	Structure (SMILES)
2370 nM	Cn1cnc(NCc2ccc3[nH]ncc3c2)c1-c1nnc(Nc2ccc(Cl)cc2)o1
130 nM	Cn1cnc(NCc2ccncc2)c1-c1nnc(Nc2ccc(OC(F)(F)Cl)cc2)o1
1860 nM	Cn1cnc(NCc2ccc(F)c(F)c2)c1-c1nnc(Nc2ccc(Cl)cc2)o1
> 10000 nM	Cn1cnc(NCc2ccc3ccccc3n2)c1-c1nnc(Nc2ccc(Cl)cc2)o1
130 nM	COc1cccc(Nc2nnc(-c3c(NCc4ccncc4)ncn3C)o2)c1
140 nM	Cn1cnc(NCc2ccncc2)c1-c1nnc(NCc2ccc3c(c2)OCO3)o1

biological target: Vascular endothelial growth factor receptor 1 (Homo sapiens, UniProt P17948); experiment: Inhibition of VEGFR1 by enzymatic assay

IC50	Structure (SMILES)
> 10000 nM	Cn1cnc(NCc2ccc3[nH]ncc3c2)c1-c1nnc(Nc2ccc(Cl)cc2)o1
460 nM	Cn1cnc(NCc2ccncc2)c1-c1nnc(Nc2ccc(OC(F)(F)Cl)cc2)o1
3310 nM	Cn1cnc(NCc2ccc(F)c(F)c2)c1-c1nnc(Nc2ccc(Cl)cc2)o1
> 10000 nM	Cn1cnc(NCc2ccc3ccccc3n2)c1-c1nnc(Nc2ccc(Cl)cc2)o1
670 nM	COc1cccc(Nc2nnc(-c3c(NCc4ccncc4)ncn3C)o2)c1
440 nM	Cn1cnc(NCc2ccncc2)c1-c1nnc(NCc2ccc3c(c2)OCO3)o1

biological target: T1, Vascular endothelial growth factor receptor 2; experiment: Inhibition of VEGFR2 in 293 adenovirus transfected kidney cells by cell-based ELISA assay

IC50	Structure (SMILES)
> 10000 nM	Cn1cnc(NCc2ccc3[nH]ncc3c2)c1-c1nnc(Nc2ccc(Cl)cc2)o1
96 nM	Cn1cnc(NCc2ccncc2)c1-c1nnc(Nc2ccc(OC(F)(F)Cl)cc2)o1
5650 nM	Cn1cnc(NCc2ccc(F)c(F)c2)c1-c1nnc(Nc2ccc(Cl)cc2)o1
> 10000 nM	Cn1cnc(NCc2ccc3ccccc3n2)c1-c1nnc(Nc2ccc(Cl)cc2)o1
64 nM	COc1cccc(Nc2nnc(-c3c(NCc4ccncc4)ncn3C)o2)c1
270 nM	Cn1cnc(NCc2ccncc2)c1-c1nnc(NCc2ccc3c(c2)OCO3)o1

test system: not listed separately; experiment: Solubility in water; format: physicochemical

solubility	Structure (SMILES)
> 5 mM	Cn1cnc(NCc2ccncc2)c1-c1nnc(Nc2ccc(OC(F)(F)Cl)cc2)o1
> 5 mM	COc1cccc(Nc2nnc(-c3c(NCc4ccncc4)ncn3C)o2)c1

biological target: Receptor-type tyrosine-protein kinase FLT3 (Homo sapiens) (UniProt P36888); experiment: Inhibition of Flt3 at 10 uM by HTRF method; design: scale not given: the % may be the effect or the level left

Activity	Structure (SMILES)
< 30%	Cn1cnc(NCc2ccc3[nH]ncc3c2)c1-c1nnc(Nc2ccc(Cl)cc2)o1
< 30%	Cn1cnc(NCc2ccncc2)c1-c1nnc(Nc2ccc(OC(F)(F)Cl)cc2)o1
< 30%	Cn1cnc(NCc2ccc(F)c(F)c2)c1-c1nnc(Nc2ccc(Cl)cc2)o1
< 30%	Cn1cnc(NCc2ccc3ccccc3n2)c1-c1nnc(Nc2ccc(Cl)cc2)o1
< 30%	COc1cccc(Nc2nnc(-c3c(NCc4ccncc4)ncn3C)o2)c1
< 30%	Cn1cnc(NCc2ccncc2)c1-c1nnc(NCc2ccc3c(c2)OCO3)o1

biological target: Epidermal growth factor receptor (Homo sapiens) (UniProt P00533); experiment: […] against ErbB1 at 10 uM by HTRF method
Sequence (P00533 whole entry): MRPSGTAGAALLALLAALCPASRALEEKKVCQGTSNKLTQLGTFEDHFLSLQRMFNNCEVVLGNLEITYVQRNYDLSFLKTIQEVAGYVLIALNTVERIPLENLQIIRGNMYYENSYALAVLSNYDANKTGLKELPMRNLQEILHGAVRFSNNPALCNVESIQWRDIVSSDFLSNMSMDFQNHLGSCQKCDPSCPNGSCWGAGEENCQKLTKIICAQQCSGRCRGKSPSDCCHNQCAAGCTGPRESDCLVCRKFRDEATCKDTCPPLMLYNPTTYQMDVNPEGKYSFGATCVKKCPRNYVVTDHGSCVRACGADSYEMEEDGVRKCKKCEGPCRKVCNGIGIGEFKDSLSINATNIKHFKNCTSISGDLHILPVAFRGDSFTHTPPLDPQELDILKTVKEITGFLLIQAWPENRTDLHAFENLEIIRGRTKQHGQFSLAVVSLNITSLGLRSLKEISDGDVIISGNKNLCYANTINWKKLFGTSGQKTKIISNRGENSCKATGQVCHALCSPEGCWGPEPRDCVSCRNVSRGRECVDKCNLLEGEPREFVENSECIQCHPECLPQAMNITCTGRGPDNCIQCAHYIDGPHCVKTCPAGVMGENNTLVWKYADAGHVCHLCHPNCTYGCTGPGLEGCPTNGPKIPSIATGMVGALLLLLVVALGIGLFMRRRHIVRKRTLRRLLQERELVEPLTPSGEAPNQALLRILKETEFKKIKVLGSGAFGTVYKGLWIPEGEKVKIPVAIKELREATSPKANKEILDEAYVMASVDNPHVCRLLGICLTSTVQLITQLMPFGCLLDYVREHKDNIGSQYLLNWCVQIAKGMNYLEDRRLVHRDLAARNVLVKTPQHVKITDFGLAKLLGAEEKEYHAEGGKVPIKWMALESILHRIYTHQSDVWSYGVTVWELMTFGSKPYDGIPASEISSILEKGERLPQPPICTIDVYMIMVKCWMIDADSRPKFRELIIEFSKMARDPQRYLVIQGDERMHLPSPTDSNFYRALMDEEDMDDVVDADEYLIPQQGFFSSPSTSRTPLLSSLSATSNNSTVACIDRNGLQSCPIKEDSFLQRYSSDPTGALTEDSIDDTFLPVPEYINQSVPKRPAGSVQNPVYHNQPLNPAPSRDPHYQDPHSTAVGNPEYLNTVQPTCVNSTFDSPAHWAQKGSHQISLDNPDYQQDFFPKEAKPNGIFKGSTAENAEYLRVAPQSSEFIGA

Percent inhibition	Structure (SMILES)
< 30%	Cn1cnc(NCc2ccc3[nH]ncc3c2)c1-c1nnc(Nc2ccc(Cl)cc2)o1
< 30%	Cn1cnc(NCc2ccncc2)c1-c1nnc(Nc2ccc(OC(F)(F)Cl)cc2)o1
< 30%	Cn1cnc(NCc2ccc(F)c(F)c2)c1-c1nnc(Nc2ccc(Cl)cc2)o1
< 30%	Cn1cnc(NCc2ccc3ccccc3n2)c1-c1nnc(Nc2ccc(Cl)cc2)o1
< 30%	COc1cccc(Nc2nnc(-c3c(NCc4ccncc4)ncn3C)o2)c1
< 30%	Cn1cnc(NCc2ccncc2)c1-c1nnc(NCc2ccc3c(c2)OCO3)o1

biological target: Receptor tyrosine-protein kinase erbB-2 (Homo sapiens) (UniProt P04626); experiment: […] against ErbB2 at 10 uM by HTRF method

Activity	Structure (SMILES)
< 30%	Cn1cnc(NCc2ccc3[nH]ncc3c2)c1-c1nnc(Nc2ccc(Cl)cc2)o1
< 30%	Cn1cnc(NCc2ccncc2)c1-c1nnc(Nc2ccc(OC(F)(F)Cl)cc2)o1
< 30%	Cn1cnc(NCc2ccc(F)c(F)c2)c1-c1nnc(Nc2ccc(Cl)cc2)o1
< 30%	Cn1cnc(NCc2ccc3ccccc3n2)c1-c1nnc(Nc2ccc(Cl)cc2)o1
< 30%	COc1cccc(Nc2nnc(-c3c(NCc4ccncc4)ncn3C)o2)c1
< 30%	Cn1cnc(NCc2ccncc2)c1-c1nnc(NCc2ccc3c(c2)OCO3)o1

biological target: T2, Ephrin type-B receptor 4 (Homo sapiens) (UniProt P54760); experiment: Percent inhibition against EphB4 at 10 uM by HTRF method; design: scale not given: the % may be the effect or the level left
T2 sequence (whole entry): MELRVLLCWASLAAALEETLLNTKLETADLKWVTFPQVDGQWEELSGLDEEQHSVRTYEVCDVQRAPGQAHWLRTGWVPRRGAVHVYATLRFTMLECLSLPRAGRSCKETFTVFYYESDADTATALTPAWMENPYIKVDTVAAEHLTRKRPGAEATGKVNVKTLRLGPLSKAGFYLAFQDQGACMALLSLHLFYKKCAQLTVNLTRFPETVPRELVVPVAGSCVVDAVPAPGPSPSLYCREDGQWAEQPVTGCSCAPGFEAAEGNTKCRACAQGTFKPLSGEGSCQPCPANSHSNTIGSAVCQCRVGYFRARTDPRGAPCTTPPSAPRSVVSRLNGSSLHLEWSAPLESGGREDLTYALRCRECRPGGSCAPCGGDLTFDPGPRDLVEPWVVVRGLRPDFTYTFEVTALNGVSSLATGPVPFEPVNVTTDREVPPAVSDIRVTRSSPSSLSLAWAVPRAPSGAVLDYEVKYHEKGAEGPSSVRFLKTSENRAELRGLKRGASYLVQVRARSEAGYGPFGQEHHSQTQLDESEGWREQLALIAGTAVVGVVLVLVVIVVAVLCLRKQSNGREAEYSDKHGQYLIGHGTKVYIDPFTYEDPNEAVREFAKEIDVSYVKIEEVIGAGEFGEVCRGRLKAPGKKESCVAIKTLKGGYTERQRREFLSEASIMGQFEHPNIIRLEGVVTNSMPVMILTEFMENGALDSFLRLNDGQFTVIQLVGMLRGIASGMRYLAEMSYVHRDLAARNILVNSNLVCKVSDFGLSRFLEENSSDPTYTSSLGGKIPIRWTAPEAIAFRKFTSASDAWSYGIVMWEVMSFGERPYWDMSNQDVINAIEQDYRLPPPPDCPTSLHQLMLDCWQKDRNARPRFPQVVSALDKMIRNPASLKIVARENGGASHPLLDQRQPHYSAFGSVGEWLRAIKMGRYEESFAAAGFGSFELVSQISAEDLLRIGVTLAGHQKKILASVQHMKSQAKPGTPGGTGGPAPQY

Activity	Structure (SMILES)
< 30%	Cn1cnc(NCc2ccc3[nH]ncc3c2)c1-c1nnc(Nc2ccc(Cl)cc2)o1
< 30%	Cn1cnc(NCc2ccncc2)c1-c1nnc(Nc2ccc(OC(F)(F)Cl)cc2)o1
< 30%	Cn1cnc(NCc2ccc(F)c(F)c2)c1-c1nnc(Nc2ccc(Cl)cc2)o1
< 30%	Cn1cnc(NCc2ccc3ccccc3n2)c1-c1nnc(Nc2ccc(Cl)cc2)o1
< 30%	COc1cccc(Nc2nnc(-c3c(NCc4ccncc4)ncn3C)o2)c1
< 30%	Cn1cnc(NCc2ccncc2)c1-c1nnc(NCc2ccc3c(c2)OCO3)o1

biological target: Hepatocyte growth factor receptor (Homo sapiens) (UniProt P08581); experiment: Percent inhibition against c-Met at 10 uM by HTRF method; design: scale not given: the % may be the effect or the level left
Sequence (P08581 whole entry): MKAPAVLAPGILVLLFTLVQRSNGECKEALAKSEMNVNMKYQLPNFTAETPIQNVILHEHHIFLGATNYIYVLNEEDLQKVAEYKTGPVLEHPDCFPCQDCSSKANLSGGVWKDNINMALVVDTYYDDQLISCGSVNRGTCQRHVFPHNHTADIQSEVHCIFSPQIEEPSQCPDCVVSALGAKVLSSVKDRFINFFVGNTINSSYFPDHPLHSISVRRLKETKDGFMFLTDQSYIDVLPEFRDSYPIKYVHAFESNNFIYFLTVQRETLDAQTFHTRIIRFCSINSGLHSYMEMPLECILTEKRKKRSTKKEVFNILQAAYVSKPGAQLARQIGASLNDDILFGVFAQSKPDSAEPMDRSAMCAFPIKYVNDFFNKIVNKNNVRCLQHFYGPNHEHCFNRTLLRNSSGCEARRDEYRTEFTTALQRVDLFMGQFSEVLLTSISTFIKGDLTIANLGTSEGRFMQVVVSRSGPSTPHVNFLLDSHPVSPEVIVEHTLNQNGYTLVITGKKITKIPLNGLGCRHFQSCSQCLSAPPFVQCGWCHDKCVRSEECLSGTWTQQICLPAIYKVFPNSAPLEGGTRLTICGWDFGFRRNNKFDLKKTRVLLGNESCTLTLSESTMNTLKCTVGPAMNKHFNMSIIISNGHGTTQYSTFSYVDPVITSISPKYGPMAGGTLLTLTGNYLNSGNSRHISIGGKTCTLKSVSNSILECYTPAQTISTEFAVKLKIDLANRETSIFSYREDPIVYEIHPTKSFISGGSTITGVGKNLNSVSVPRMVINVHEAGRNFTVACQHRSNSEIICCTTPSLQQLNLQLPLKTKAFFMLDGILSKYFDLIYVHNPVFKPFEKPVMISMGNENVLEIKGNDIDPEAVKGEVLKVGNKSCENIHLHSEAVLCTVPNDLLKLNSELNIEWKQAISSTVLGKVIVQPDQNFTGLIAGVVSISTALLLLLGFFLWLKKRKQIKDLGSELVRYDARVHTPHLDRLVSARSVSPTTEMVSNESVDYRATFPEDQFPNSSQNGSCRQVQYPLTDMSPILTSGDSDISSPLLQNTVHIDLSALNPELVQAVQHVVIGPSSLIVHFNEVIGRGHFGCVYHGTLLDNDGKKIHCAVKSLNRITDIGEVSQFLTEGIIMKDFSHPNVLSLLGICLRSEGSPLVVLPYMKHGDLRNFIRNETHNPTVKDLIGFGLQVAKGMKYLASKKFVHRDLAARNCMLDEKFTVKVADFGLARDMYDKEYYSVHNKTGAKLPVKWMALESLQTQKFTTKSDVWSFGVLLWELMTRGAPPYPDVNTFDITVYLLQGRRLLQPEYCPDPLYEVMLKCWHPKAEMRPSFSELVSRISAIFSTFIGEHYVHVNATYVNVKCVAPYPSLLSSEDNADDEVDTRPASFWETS

Activity	Structure (SMILES)
< 30%	Cn1cnc(NCc2ccc3[nH]ncc3c2)c1-c1nnc(Nc2ccc(Cl)cc2)o1
< 30%	Cn1cnc(NCc2ccncc2)c1-c1nnc(Nc2ccc(OC(F)(F)Cl)cc2)o1
< 30%	Cn1cnc(NCc2ccc(F)c(F)c2)c1-c1nnc(Nc2ccc(Cl)cc2)o1
< 30%	Cn1cnc(NCc2ccc3ccccc3n2)c1-c1nnc(Nc2ccc(Cl)cc2)o1
< 30%	COc1cccc(Nc2nnc(-c3c(NCc4ccncc4)ncn3C)o2)c1
< 30%	Cn1cnc(NCc2ccncc2)c1-c1nnc(NCc2ccc3c(c2)OCO3)o1

biological target: cAMP-dependent protein kinase (PKA) (Homo sapiens) (UniProt P22694+P17612+P22612); experiment: Inhibition against PKA at 10 uM by HTRF method; format: protein assay; design: scale not given: the % may be the effect or the level left

Activity	Structure (SMILES)
< 30%	Cn1cnc(NCc2ccc3[nH]ncc3c2)c1-c1nnc(Nc2ccc(Cl)cc2)o1
< 30%	Cn1cnc(NCc2ccncc2)c1-c1nnc(Nc2ccc(OC(F)(F)Cl)cc2)o1
< 30%	Cn1cnc(NCc2ccc(F)c(F)c2)c1-c1nnc(Nc2ccc(Cl)cc2)o1
< 30%	Cn1cnc(NCc2ccc3ccccc3n2)c1-c1nnc(Nc2ccc(Cl)cc2)o1
< 30%	COc1cccc(Nc2nnc(-c3c(NCc4ccncc4)ncn3C)o2)c1
< 30%	Cn1cnc(NCc2ccncc2)c1-c1nnc(NCc2ccc3c(c2)OCO3)o1

biological target: Glycogen synthase kinase-3 beta (Homo sapiens) (UniProt P49841); experiment: Inhibition against GSK3-beta at 10 uM by HTRF method; design: scale not given: the % may be the effect or the level left
Sequence (P49841 whole entry, looked up): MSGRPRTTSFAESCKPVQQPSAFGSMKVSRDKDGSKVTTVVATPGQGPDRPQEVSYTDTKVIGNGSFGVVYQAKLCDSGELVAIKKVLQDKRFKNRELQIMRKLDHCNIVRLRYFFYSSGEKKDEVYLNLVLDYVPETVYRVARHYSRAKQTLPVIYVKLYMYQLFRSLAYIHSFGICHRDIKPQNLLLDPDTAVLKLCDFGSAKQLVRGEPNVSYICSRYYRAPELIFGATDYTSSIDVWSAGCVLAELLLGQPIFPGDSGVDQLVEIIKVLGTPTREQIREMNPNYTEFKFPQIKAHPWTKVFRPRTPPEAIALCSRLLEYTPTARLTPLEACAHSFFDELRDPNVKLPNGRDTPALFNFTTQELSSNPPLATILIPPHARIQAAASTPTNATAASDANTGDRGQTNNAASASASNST

Activity	Structure (SMILES)
< 30%	Cn1cnc(NCc2ccc3[nH]ncc3c2)c1-c1nnc(Nc2ccc(Cl)cc2)o1
< 30%	Cn1cnc(NCc2ccncc2)c1-c1nnc(Nc2ccc(OC(F)(F)Cl)cc2)o1
< 30%	Cn1cnc(NCc2ccc(F)c(F)c2)c1-c1nnc(Nc2ccc(Cl)cc2)o1
< 30%	Cn1cnc(NCc2ccc3ccccc3n2)c1-c1nnc(Nc2ccc(Cl)cc2)o1
< 30%	COc1cccc(Nc2nnc(-c3c(NCc4ccncc4)ncn3C)o2)c1
< 30%	Cn1cnc(NCc2ccncc2)c1-c1nnc(NCc2ccc3c(c2)OCO3)o1

biological target: RAC-alpha serine/threonine-protein kinase (Homo sapiens) (UniProt P31749); experiment: […] against PKB/Akt at 10 uM by HTRF method
Sequence (P31749 whole entry): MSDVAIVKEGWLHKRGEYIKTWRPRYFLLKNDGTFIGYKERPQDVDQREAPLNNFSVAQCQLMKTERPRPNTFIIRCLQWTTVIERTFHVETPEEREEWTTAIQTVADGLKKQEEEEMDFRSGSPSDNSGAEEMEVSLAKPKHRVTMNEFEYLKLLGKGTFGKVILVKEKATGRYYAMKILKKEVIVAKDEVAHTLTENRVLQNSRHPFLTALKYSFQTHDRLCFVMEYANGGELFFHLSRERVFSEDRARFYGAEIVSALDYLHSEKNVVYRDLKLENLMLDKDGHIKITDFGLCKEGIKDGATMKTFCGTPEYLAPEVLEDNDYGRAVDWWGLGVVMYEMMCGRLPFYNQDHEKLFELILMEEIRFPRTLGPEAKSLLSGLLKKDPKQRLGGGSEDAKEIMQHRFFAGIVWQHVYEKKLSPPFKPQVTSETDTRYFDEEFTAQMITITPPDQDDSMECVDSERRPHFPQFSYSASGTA

Activity	Structure (SMILES)
< 30%	Cn1cnc(NCc2ccc3[nH]ncc3c2)c1-c1nnc(Nc2ccc(Cl)cc2)o1
< 30%	Cn1cnc(NCc2ccncc2)c1-c1nnc(Nc2ccc(OC(F)(F)Cl)cc2)o1
< 30%	Cn1cnc(NCc2ccc(F)c(F)c2)c1-c1nnc(Nc2ccc(Cl)cc2)o1
< 30%	Cn1cnc(NCc2ccc3ccccc3n2)c1-c1nnc(Nc2ccc(Cl)cc2)o1
< 30%	COc1cccc(Nc2nnc(-c3c(NCc4ccncc4)ncn3C)o2)c1
< 30%	Cn1cnc(NCc2ccncc2)c1-c1nnc(NCc2ccc3c(c2)OCO3)o1

biological target: Bcr/Abl fusion protein (Homo sapiens) (UniProt P00519+P11274); experiment: Inhibition of bcr-Abl at 10 uM by HTRF method; format: protein assay; design: scale not given: the % may be the effect or the level left

Activity	Structure (SMILES)
< 30%	Cn1cnc(NCc2ccc3[nH]ncc3c2)c1-c1nnc(Nc2ccc(Cl)cc2)o1
< 30%	Cn1cnc(NCc2ccncc2)c1-c1nnc(Nc2ccc(OC(F)(F)Cl)cc2)o1
< 30%	Cn1cnc(NCc2ccc(F)c(F)c2)c1-c1nnc(Nc2ccc(Cl)cc2)o1
< 30%	Cn1cnc(NCc2ccc3ccccc3n2)c1-c1nnc(Nc2ccc(Cl)cc2)o1
< 30%	COc1cccc(Nc2nnc(-c3c(NCc4ccncc4)ncn3C)o2)c1
< 30%	Cn1cnc(NCc2ccncc2)c1-c1nnc(NCc2ccc3c(c2)OCO3)o1

biological target: Cyclin-dependent kinase 2 (Homo sapiens) (UniProt P24941); experiment: […] against Cdk2 at 10 uM by HTRF method

Percent inhibition	Structure (SMILES)
< 30%	Cn1cnc(NCc2ccc3[nH]ncc3c2)c1-c1nnc(Nc2ccc(Cl)cc2)o1
< 30%	Cn1cnc(NCc2ccncc2)c1-c1nnc(Nc2ccc(OC(F)(F)Cl)cc2)o1
< 30%	Cn1cnc(NCc2ccc(F)c(F)c2)c1-c1nnc(Nc2ccc(Cl)cc2)o1
< 30%	Cn1cnc(NCc2ccc3ccccc3n2)c1-c1nnc(Nc2ccc(Cl)cc2)o1
< 30%	COc1cccc(Nc2nnc(-c3c(NCc4ccncc4)ncn3C)o2)c1
< 30%	Cn1cnc(NCc2ccncc2)c1-c1nnc(NCc2ccc3c(c2)OCO3)o1

biological target: Cyclin-dependent kinase 5 (Homo sapiens) (UniProt Q00535); experiment: […] against Cdk5 at 10 uM by HTRF method
Sequence (Q00535 whole entry, looked up): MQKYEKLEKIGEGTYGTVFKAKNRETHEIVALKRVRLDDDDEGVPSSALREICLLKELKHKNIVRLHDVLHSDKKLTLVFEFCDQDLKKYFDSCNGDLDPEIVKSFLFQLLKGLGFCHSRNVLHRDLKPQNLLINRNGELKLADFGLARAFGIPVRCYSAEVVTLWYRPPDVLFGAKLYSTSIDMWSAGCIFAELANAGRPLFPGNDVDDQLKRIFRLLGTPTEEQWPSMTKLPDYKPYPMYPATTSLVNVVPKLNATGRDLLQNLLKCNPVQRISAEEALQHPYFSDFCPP

Activity	Structure (SMILES)
< 30%	Cn1cnc(NCc2ccc3[nH]ncc3c2)c1-c1nnc(Nc2ccc(Cl)cc2)o1
< 30%	Cn1cnc(NCc2ccncc2)c1-c1nnc(Nc2ccc(OC(F)(F)Cl)cc2)o1
< 30%	Cn1cnc(NCc2ccc(F)c(F)c2)c1-c1nnc(Nc2ccc(Cl)cc2)o1
< 30%	Cn1cnc(NCc2ccc3ccccc3n2)c1-c1nnc(Nc2ccc(Cl)cc2)o1
< 30%	COc1cccc(Nc2nnc(-c3c(NCc4ccncc4)ncn3C)o2)c1
< 30%	Cn1cnc(NCc2ccncc2)c1-c1nnc(NCc2ccc3c(c2)OCO3)o1

biological target: Fibroblast growth factor receptor 1 (Homo sapiens) (UniProt P11362); experiment: Percent inhibition against FGFR1 at 10 uM by HTRF method; design: scale not given: the % may be the effect or the level left
Sequence (P11362 22-822 limits assumed): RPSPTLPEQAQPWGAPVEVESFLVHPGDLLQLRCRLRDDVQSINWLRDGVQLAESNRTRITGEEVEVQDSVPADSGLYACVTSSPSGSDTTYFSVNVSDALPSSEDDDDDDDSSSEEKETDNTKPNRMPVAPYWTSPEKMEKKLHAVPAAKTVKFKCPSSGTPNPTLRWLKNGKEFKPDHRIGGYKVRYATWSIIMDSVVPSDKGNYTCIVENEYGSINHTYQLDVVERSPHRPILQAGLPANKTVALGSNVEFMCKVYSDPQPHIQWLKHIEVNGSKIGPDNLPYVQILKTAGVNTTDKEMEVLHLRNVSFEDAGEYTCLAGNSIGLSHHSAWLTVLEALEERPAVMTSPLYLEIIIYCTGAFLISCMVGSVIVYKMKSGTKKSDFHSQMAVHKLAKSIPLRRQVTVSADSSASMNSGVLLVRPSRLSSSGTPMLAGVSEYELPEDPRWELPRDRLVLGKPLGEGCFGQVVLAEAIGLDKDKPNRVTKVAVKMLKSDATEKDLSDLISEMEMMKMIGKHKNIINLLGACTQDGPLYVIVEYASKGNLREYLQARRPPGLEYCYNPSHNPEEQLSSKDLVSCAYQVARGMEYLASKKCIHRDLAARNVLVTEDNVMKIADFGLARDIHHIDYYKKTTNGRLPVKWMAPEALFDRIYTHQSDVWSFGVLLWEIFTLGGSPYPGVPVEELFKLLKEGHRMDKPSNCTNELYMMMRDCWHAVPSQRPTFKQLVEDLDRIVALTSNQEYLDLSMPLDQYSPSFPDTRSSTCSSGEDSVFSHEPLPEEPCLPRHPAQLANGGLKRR

Activity	Structure (SMILES)
< 30%	Cn1cnc(NCc2ccc3[nH]ncc3c2)c1-c1nnc(Nc2ccc(Cl)cc2)o1
< 30%	Cn1cnc(NCc2ccncc2)c1-c1nnc(Nc2ccc(OC(F)(F)Cl)cc2)o1
< 30%	Cn1cnc(NCc2ccc(F)c(F)c2)c1-c1nnc(Nc2ccc(Cl)cc2)o1
< 30%	Cn1cnc(NCc2ccc3ccccc3n2)c1-c1nnc(Nc2ccc(Cl)cc2)o1
< 30%	COc1cccc(Nc2nnc(-c3c(NCc4ccncc4)ncn3C)o2)c1
< 30%	Cn1cnc(NCc2ccncc2)c1-c1nnc(NCc2ccc3c(c2)OCO3)o1
